Data as given in patent US20230348418A1, “ISOINDOLINONE COMPOUNDS” (Monte Rosa Therapeutics, Inc., priority 2021, published 2023).
Read-outs that look alike come from different tables or passages of the source.

Assays:
CRBN-DDB1 = CRBN-DDB1 (Homo sapiens, UniProt Q96SW2); experiment: HTRF binding of compounds to CRBN
Description: Compound activity was monitored in a Homogenous Time-Resolved Fluorescence (HTRF) assay using 1-[5-({2-[2-(2-{[2-(2,6-dioxopiperidin-3-yl)-1,3-dioxo-2,3-dihydro-1H-isoindol-4-yl]oxy}acetamido)ethoxy]ethyl}carbamoyl)pentyl]-3,3-dimethyl-2-[(1E,3E)-5-[(2E)-1,3,3-trimethyl-5-sulfo-2,3-dihydro-1H-indol-2-ylidene]penta-1,3-dien-1-yl]-3H-indol-1-ium-5-sulfonate as a fluorescent probe. […] Compounds were stored in dry, ambient temperatures at 10 mM. A 10-point, 1:3 dilution series was prepared from 10 mM stock concentrations in Echo-compatible LDV plates. 10 nL of each compound dilution series was dispensed into assays wells using an Echo 650 (Labcyte inc. USA). […] The assay was then allowed to incubate for 30 min at ambient temperature after transferring compound. […] Analysis and IC50 values were derived using KNIME analytics (KNIME Zurich) transformation and fitting within Collaborative Drug Discovery (Collaborative Drug Discovery USA). Ki was derived from the geometric mean of the IC50 values using the Cheng-Prustoff transformation.

GSPT1 = GSPT1 (Homo sapiens, UniProt P15170+Q96SW2); experiment: Immunofluorescence assay for GSPT1 degradation in CAL-51 cells (Example 10); assay type: cell-based; design: host or cells: CAL-51
Chain of GSPT1 (P15170 whole entry): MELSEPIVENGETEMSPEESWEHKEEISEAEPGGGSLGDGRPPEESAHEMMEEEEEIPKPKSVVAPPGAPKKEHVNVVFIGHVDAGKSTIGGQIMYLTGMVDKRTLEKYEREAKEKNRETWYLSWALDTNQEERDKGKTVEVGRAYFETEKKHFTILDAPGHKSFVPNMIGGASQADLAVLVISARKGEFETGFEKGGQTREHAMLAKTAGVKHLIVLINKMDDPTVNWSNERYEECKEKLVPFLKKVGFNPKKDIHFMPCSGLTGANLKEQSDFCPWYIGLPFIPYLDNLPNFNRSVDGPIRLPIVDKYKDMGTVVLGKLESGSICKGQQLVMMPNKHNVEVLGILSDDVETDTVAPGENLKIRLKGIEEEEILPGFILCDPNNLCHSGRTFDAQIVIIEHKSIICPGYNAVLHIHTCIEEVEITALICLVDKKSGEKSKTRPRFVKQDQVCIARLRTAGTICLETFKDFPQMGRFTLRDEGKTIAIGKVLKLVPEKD
Chain of GSPT1 (Q96SW2 whole entry): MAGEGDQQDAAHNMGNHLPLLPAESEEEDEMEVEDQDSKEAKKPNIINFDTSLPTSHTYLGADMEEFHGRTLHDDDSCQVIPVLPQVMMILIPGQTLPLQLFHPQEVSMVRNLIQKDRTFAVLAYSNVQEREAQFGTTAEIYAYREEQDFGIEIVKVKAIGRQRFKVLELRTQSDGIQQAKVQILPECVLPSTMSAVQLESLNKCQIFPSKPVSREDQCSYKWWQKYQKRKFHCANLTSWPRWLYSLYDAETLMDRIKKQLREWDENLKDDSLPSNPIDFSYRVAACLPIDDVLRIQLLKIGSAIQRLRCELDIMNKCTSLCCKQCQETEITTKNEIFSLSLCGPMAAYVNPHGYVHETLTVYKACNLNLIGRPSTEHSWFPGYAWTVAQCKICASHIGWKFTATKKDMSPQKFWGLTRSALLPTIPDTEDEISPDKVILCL
Chain of GSPT1 (Q16531 2-1140 partner limits assumed): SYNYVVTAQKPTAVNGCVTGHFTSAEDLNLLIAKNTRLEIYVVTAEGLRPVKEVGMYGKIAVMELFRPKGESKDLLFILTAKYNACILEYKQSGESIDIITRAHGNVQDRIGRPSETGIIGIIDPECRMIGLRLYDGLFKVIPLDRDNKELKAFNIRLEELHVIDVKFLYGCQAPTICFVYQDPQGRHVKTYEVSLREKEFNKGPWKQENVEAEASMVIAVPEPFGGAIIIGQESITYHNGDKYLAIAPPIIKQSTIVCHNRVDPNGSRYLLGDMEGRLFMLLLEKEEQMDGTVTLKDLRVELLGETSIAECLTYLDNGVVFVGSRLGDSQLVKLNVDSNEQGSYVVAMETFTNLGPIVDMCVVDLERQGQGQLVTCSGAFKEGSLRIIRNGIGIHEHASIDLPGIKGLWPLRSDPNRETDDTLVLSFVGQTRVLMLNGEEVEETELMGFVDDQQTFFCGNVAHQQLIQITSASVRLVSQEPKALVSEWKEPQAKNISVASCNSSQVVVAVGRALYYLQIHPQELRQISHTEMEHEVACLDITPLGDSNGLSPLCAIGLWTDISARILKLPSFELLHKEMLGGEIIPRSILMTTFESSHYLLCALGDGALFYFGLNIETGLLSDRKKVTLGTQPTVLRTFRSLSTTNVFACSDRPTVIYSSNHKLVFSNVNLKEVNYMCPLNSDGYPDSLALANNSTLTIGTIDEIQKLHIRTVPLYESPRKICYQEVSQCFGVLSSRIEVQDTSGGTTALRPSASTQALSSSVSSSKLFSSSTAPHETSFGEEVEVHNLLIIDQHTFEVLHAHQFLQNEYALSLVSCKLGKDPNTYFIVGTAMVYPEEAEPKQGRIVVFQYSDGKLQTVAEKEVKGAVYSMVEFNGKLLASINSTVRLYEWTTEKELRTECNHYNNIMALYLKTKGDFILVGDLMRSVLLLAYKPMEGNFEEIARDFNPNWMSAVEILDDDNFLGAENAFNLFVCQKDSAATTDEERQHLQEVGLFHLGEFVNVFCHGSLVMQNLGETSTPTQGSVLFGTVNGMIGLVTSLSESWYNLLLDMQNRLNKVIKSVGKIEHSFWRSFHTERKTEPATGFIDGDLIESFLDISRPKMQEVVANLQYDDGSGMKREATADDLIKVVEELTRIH
Description: The representative compounds were tested in an immunofluorescence assay for their activity to degrade GSPT1. […] Compounds were stored at 10 mM DMSO stocks. […] Cells were subsequently rinsed with PBS and fixed in 10% Formalin solution (50 μl, Sigma HT5011)) for 20 mins at room temperature. […] Following three further PBS washes, 50 μL blocking buffer (1% BSA, Sigma A4503, in PBS) was added for 45 min for signal-to noise reduction. Primary antibody (human GSPT1, Sigma HPA052488) was diluted in blocking buffer (dil.1/300, 35 μL/well) and incubated with the cells overnight at 4° C. […] After three final PBS washes, samples were conserved in 100 μL PBS in the dark, until measurement. Image acquisition was performed on the Operetta High-Content Imager (Perkin-Elmer). […] For the determination of GSPT1 DC50 values, a custom algorithm implemented in the PerkinElmer image analysis software Harmony-Acapella® was developed. After user-defined setting of adjustment parameters, the analysis was run identically without human intervention for all image fields.
DAPI staining of the nuclei was used to determine the location of cells using standard nuclei detection modules. Segmentation artifacts were removed by threshold-based filters for area, roundness and intensity. The outline of the cells was determined analogously from the sum of the normalized, smoothed DAPI and Actin channel, starting from each nucleus. […] GSPT1 degradation (DC50) was calculated after normalization to controls and data import in CDD vault Database, using non-linear regression.

[1] = read-out: HTRF Class (Cereblon binding, HTRF IC50)
[2] = 6 h, read-out: IF Class (GSPT1 degradation, DC50)
[3] = read-out: IF Class (GSPT1 degradation, DC50), 6 h

Chain of CRBN-DDB1 (Q96SW2 whole entry): as the sequence (Q96SW2 whole entry) above
Chain of CRBN-DDB1 (Q16531 whole entry partner): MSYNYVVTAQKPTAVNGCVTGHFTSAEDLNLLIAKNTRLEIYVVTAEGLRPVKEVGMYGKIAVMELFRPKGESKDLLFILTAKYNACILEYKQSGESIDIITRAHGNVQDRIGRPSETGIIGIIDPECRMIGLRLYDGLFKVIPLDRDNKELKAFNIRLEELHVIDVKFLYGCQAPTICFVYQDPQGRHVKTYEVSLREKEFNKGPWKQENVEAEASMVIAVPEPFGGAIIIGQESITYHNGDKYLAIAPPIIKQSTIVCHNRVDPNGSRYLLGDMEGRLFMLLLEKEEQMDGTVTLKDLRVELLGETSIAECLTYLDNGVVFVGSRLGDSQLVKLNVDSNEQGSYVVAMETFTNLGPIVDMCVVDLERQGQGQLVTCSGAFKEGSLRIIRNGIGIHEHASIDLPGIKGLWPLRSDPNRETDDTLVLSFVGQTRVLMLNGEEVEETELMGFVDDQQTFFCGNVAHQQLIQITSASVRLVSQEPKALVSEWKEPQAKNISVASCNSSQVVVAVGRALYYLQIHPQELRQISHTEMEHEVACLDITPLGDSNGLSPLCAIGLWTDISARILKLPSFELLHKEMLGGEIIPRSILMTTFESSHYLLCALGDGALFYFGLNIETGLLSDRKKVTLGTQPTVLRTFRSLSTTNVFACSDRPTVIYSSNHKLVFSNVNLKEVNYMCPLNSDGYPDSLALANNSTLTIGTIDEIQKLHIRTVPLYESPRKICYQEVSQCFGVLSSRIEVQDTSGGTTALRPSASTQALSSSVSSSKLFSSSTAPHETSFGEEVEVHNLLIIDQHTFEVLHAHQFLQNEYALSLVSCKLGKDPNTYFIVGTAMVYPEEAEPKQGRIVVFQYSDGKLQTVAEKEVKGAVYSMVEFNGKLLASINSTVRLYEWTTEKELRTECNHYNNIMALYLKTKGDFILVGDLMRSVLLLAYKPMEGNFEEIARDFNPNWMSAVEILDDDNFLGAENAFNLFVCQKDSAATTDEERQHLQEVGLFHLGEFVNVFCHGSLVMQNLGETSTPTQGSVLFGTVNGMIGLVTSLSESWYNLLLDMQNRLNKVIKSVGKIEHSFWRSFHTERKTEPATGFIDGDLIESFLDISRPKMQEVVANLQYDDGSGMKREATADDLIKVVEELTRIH

Structure (SMILES)	IC50 (CRBN-DDB1; [1])	DC50 (GSPT1; [2])	IC50 (CRBN-DDB1)	DC50 (GSPT1; [3])
O=C1CCC(N2Cc3ccc(COC(=O)NC4(c5ccccc5)CC4)cc3C2=O)C(=O)N1 (centres unmarked) [Compound 171, (2-(2,6-dioxopiperidin-3-yl)-3-oxoisoindolin-5-yl)methyl (1-phenylcyclopropyl)carbamate]	100 to 1000 nM	> 300 nM	–	–
CCc1ccc(F)c(NC(=O)OCc2ccc3c(c2)C(=O)N(C2CCC(=O)NC2=O)C3)c1 (centres unmarked) [Compound 210, (2-(2,6-dioxopiperidin-3-yl)-3-oxoisoindolin-5-yl)methyl (5-ethyl-2-fluorophenyl)carbamate]	< 100 nM	> 300 nM	–	–
O=C1CCC(N2Cc3ccc(COC(=O)Nc4c(F)ccc(Cl)c4F)cc3C2=O)C(=O)N1 (centres unmarked) [Compound 178, (2-(2,6-dioxopiperidin-3-yl)-3-oxoisoindolin-5-yl)methyl (3-chloro-2,6-difluorophenyl)carbamate]	100 to 1000 nM	> 300 nM	–	–
CC(C)c1ccc(F)c(NC(=O)OCc2ccc3c(c2)C(=O)N(C2CCC(=O)NC2=O)C3)c1 (centres unmarked) [Compound 205, (2-(2,6-dioxopiperidin-3-yl)-3-oxoisoindolin-5-yl)methyl (2-fluoro-5-isopropylphenyl)carbamate]	100 to 1000 nM	30 to 300 nM	–	–
Cc1cc(C)nc(NC(=O)OCc2ccc3c(c2)C(=O)N(C2CCC(=O)NC2=O)C3)c1 (centres unmarked) [Compound 161, (2-(2,6-dioxopiperidin-3-yl)-3-oxoisoindolin-5-yl)methyl (4,6-dimethylpyridin-2-yl)carbamate]	100 to 1000 nM	> 300 nM	–	–
CC(C)(C)OC(=O)C12CC(NC(=O)OCc3ccc4c(c3)C(=O)N(C3CCC(=O)NC3=O)C4)(C1)C2 (centres unmarked) [Compound 224, tert-butyl 3-((((2-(2,6-dioxopiperidin-3-yl)-3-oxoisoindolin-5-yl)methoxy)carbonyl)amino)bicyclo[1.1.1]pentane-1-carboxylate]	100 to 1000 nM	30 to 300 nM	–	–
Cc1c(Cl)ccc(NC(=O)OCc2ccc3c(c2)C(=O)N(C2CCC(=O)NC2=O)C3)c1F (centres unmarked) [Compound 180]	–	–	100 to 1000 nM	30 to 300 nM
Cc1cc(NC(=O)OCc2ccc3c(c2)C(=O)N(C2CCC(=O)NC2=O)C3)ccc1Cl (centres unmarked) [Compound 165, (2-(2,6-dioxopiperidin-3-yl)-3-oxoisoindolin-5-yl)methyl (4-chloro-3-methylphenyl)carbamate]	100 to 1000 nM	< 30 nM	–	–
O=C1CCC(N2Cc3ccc(COC(=O)N[C@H]4C[C@@H](c5ccccc5)C4)cc3C2=O)C(=O)N1 (some centres unmarked) [Compound 158, (2-(2,6-dioxopiperidin-3-yl)-3-oxoisoindolin-5-yl)methyl ((1s,3s)-3-phenylcyclobutyl)carbamate]	< 100 nM	> 300 nM	–	–
O=C1CCC(N2Cc3ccc(COC(=O)Nc4cc(OC(F)F)c(F)cc4F)cc3C2=O)C(=O)N1 (centres unmarked) [Compound 218, (2-(2,6-dioxopiperidin-3-yl)-3-oxoisoindolin-5-yl)methyl(5-(difluoromethoxy)-2,4-difluorophenyl) carbamate]	< 100 nM	> 300 nM	–	–
Cc1cccc(NC(=O)OCc2ccc3c(c2)C(=O)N(C2CCC(=O)NC2=O)C3)c1 (centres unmarked) [Compound 160, (2-(2,6-dioxopiperidin-3-yl)-3-oxoisoindolin-5-yl)methyl m-tolylcarbamate]	100 to 1000 nM	> 300 nM	–	–
CC1(c2ccc(NC(=O)OCc3ccc4c(c3)C(=O)N(C3CCC(=O)NC3=O)C4)nc2)CC1 (centres unmarked) [Compound 188]	–	–	100 to 1000 nM	< 30 nM
Cc1ccc(NC(=O)OCc2ccc3c(c2)C(=O)N(C2CCC(=O)NC2=O)C3)cc1 (centres unmarked) [Compound 162, (2-(2,6-dioxopiperidin-3-yl)-3-oxoisoindolin-5-yl)methyl p-tolylcarbamate]	100 to 1000 nM	> 300 nM	–	–
O=C1CCC(N2Cc3ccc(COC(=O)N[C@H]4C[C@H](c5ccccc5)C4)cc3C2=O)C(=O)N1 (some centres unmarked) [Compound 159, (2-(2,6-dioxopiperidin-3-yl)-3-oxoisoindolin-5-yl)methyl((1r,3r)-3-phenylcyclobutyl)carbamate]	100 to 1000 nM	30 to 300 nM	–	–
O=C1CCC(N2Cc3ccc(COC(=O)Nc4cc(F)cc5c4OCC5)cc3C2=O)C(=O)N1 (centres unmarked) [Compound 187, (2-(2,6-dioxopiperidin-3-yl)-3-oxoisoindolin-5-yl)methyl(5-fluoro-2,3-dihydrobenzofuran-7-yl) carbamate]	< 100 nM	> 300 nM	–	–
CC(C)(C)N1CC(NC(=O)OCc2ccc3c(c2)C(=O)N(C2CCC(=O)NC2=O)C3)C1 (centres unmarked) [Compound 172, (2-(2,6-dioxopiperidin-3-yl)-3-oxoisoindolin-5-yl)methyl (1-(tert-butyl)azetidin-3-yl)carbamate]	100 to 1000 nM	> 300 nM	–	–
CC(C)(C)Oc1ccc(F)c(NC(=O)OCc2ccc3c(c2)C(=O)N(C2CCC(=O)NC2=O)C3)c1 (centres unmarked) [Compound 222, (2-(2,6-dioxopiperidin-3-yl)-3-oxoisoindolin-5-yl)methyl (5-(tert-butoxy)-2-fluorophenyl)carbamate]	100 to 1000 nM	–	–	–
O=C1CCC(N2Cc3ccc(COC(=O)NC45CC(CF)(C4)C5)cc3C2=O)C(=O)N1 (centres unmarked) [Compound 202, (2-(2,6-dioxopiperidin-3-yl)-3-oxoisoindolin-5-yl)methyl (3-(fluoromethyl)bicyclo[1.1.1]pentan-1-yl) carbamate]	100 to 1000 nM	–	–	–
CC(F)(F)c1ccc(F)c(NC(=O)OCc2ccc3c(c2)C(=O)N(C2CCC(=O)NC2=O)C3)c1 (centres unmarked) [Compound 234]	–	–	< 100 nM	–
CC(C)(C)OC(=O)NC12CC(NC(=O)OCc3ccc4c(c3)C(=O)N(C3CCC(=O)NC3=O)C4)(C1)C2 (centres unmarked) [Compound 196, tert-butyl((2-(2,6-dioxopiperidin-3-yl)-3-oxoisoindolin-5-yl)methyl)bicyclo[1.1.1]pentane-1,3-diyldicarbamate]	< 100 nM	> 300 nM	–	–
CC(C)(O)c1ccc(NC(=O)OCc2ccc3c(c2)C(=O)N(C2CCC(=O)NC2=O)C3)cn1 (centres unmarked) [Compound 199, (2-(2,6-dioxopiperidin-3-yl)-3-oxoisoindolin-5-yl)methyl (6-(2-hydroxypropan-2-yl)pyridin-3-yl)carbamate]	100 to 1000 nM	–	–	–
O=C1CCC(N2Cc3ccc(COC(=O)Nc4cc(F)c5c(c4)CCO5)cc3C2=O)C(=O)N1 (centres unmarked) [Compound 212, (2-(2,6-dioxopiperidin-3-yl)-3-oxoisoindolin-5-yl)methyl (7-fluoro-2,3-dihydrobenzofuran-5-yl)carbamate]	< 100 nM	–	–	–
CC1(c2ccc(NC(=O)OCc3ccc4c(c3)C(=O)N(C3CCC(=O)NC3=O)C4)cc2F)COC1 (centres unmarked) [Compound 240, (2-(2,6-dioxopiperidin-3-yl)-3-oxoisoindolin-5-yl)methyl (3-fluoro-4-(3-methyloxetan-3-yl)phenyl)carbamate]	100 to 1000 nM	–	–	–
CCCOc1cc(NC(=O)OCc2ccc3c(c2)C(=O)N(C2CCC(=O)NC2=O)C3)c(F)cc1C (centres unmarked) [Compound 231, (2-(2,6-dioxopiperidin-3-yl)-3-oxoisoindolin-5-yl)methyl (2-fluoro-4-methyl-5-propoxyphenyl)carbamate]	< 100 nM	–	–	–
O=C1CCC(N2Cc3ccc(COC(=O)Nc4ccc(C5CCC5)cc4F)cc3C2=O)C(=O)N1 (centres unmarked) [Compound 164, (2-(2,6-dioxopiperidin-3-yl)-3-oxoisoindolin-5-yl)methyl (4-cyclobutyl-2-fluorophenyl)carbamate]	100 to 1000 nM	–	–	–
O=C1CCC(N2Cc3ccc(COC(=O)Nc4ccc(C5CCC5)cn4)cc3C2=O)C(=O)N1 (centres unmarked) [Compound 181, (2-(2,6-dioxopiperidin-3-yl)-3-oxoisoindolin-5-yl)methyl (5-cyclobutylpyridin-2-yl)carbamate]	100 to 1000 nM	30 to 300 nM	–	–
O=C1CCC(N2Cc3ccc(COC(=O)Nc4cccc(Cl)c4)cc3C2=O)C(=O)N1 (centres unmarked) [Compound 239, (2-(2,6-dioxopiperidin-3-yl)-3-oxoisoindolin-5-yl)methyl (3-chlorophenyl)carbamate]	100 to 1000 nM	–	–	–
C[C@@H]1CCCN1c1ccc(NC(=O)OCc2ccc3c(c2)C(=O)N(C2CCC(=O)NC2=O)C3)nc1 (some centres unmarked) [Compound 192]	–	–	< 100 nM	–
Cc1cc(F)c(NC(=O)OCc2ccc3c(c2)C(=O)N(C2CCC(=O)NC2=O)C3)cc1Br (centres unmarked) [Compound 197, (2-(2,6-dioxopiperidin-3-yl)-3-oxoisoindolin-5-yl)methyl (5-bromo-2-fluoro-4-methylphenyl)carbamate]	< 100 nM	–	–	–
